Entries after “also recorded” stand apart in the source; their conditions may differ.
Tests used:
[1] = cited from earlier work
HexA DNA fragment = assay: DNA footprinting; assay type: binding; conditions: for DNA-binding site sequence: X any base, W adenine or thymine
Method: Footprinting reactions were performed as using previously described methods using the DNA fragments HexA and HexB, which together contain all 64 symmetrical hexanucleotide sequences, and MS1 that contains all possible […] tetranucleotide sequences. The DNA fragments were obtained by cutting the parent plasmids with HindIII and SacI (for HexA and MS1) or EcoRI and PstI (for HexB), and were labelled at the “-end of the HindIII or EcoRI sites with [α-^32P]dATP using reverse transcriptase or exo− Klenow fragment. After gel purification, the radiolabelled DNA was dissolved in 10 mM Tris-HCl pH 7.5 containing 0.1 mM EDTA, at a concentration of about 10 c.p.s per μL as determined on a hand held Geiger counter. 1.5 μL of radiolabelled DNA was mixed with 1.5 μL ligand that had been freshly diluted in 10 mM Tris-HCl pH 7.5, containing 10 mM NaCl. The complexes were left to equilibrate for at least 12 hours before digesting with 2 μL dNase I (final concentration about 0.01 units/mL). The reactions were stopped after 1 minute by adding 4 μL of formamide containing 10 mM EDTA and bromophenol blue (0.1% w/v). The samples were then heated at 100° C. for 3 minutes before loading onto 8% denaturing polyacrylamide gels containing 8 M urea. Gels were fixed in 10% acetic acid, transferred to 3 MM paper, dried and exposed to a phosphor screen overnight, before analysing with a Typhoon phosphorimager
The DNA sequence selectivity profile of the molecules was investigated using a modification of a previously established DNA footprinting assay. Following an overnight incubation of the ligand-DNA complexes, the mixture was mixed with strand separation buffer containing 10 mM EDTA, 10 mM NaOH, 0.1% bromophenol blue, 80% formamide and incubated at 100° C. for 3 min. The mixture was then immediately cooled on ice and run on an 8% denaturing gel. […] The possible adducts formed within the HexA sequences are shown in FIGS. 20 and 21, respectively.

[2] = Buffer without S9 (50 mM Na-acetate, pH 5.0); conditions: 37° C., up to 24 h
[3] = Pooled liver S9 fraction, 50 mM Na-acetate, pH 5.0; conditions: 37° C., up to 24 h
[4] = system: linear double-stranded TyrT fragment; assay: DNA cross-linking assay; assay type: biochemical; conditions: overnight incubation at 37° C., 10 μM to 0.1 nM
Method: After overnight incubation, the samples were mixed with 7 μL loading solution (80% formamide containing 10 mM EDTA, 10 mM NaOH, 0.1% bromophenol blue) and incubated at 65° C. for 5 min. Control 1 (C1) for native double-stranded DNA consisted of 1.5 μL labelled DNA, 1.5 μL 10 mM Tris-HCl, pH 7.5 containing 0.1 mM EDTA and 7 μL 1× loading dye. Control 2 (C2) for denatured native single-stranded DNA was composed of 1.5 μL labelled DNA, 1.5 μL 10 mM Tris-HCl, pH 7.5 containing 0.1 mM EDTA which was incubated at 65° C. for 5 min. Control 3 (C3) for native double-stranded DNA consisted of 1.5 μL labelled DNA, 1.5 μL 10 mM Tris-HCl, pH 7.5 containing 0.1 mM EDTA and 7 μL SSB. Control 4 (C4) for denatured native single-stranded DNA was composed of 1.5 μL labelled DNA, 1.5 μL 10 mM Tris-HCl, pH 7.5 containing 0.1 mM EDTA and 7 μL SSB which was incubated at 65° C. for 5 min. Separation was performed on a 7.5% denaturing polyacrylamide gel (20 cm long, 0.3 mm thick) at 500V for about 4 h until the dye reached the bottom of the gel. The gel plates were then separated, the gels fixed by immersing in 10% (v/v) acetic acid, followed by transfer to Whatmann 3 MM paper and drying under vacuum at 80° C. […]
The ability of 26 to cross-link DNA was evaluated using an assay involving a linear double-stranded TyrT fragment (FIG. 17). […]

[5] = Comparative repeat-dose rat toxicity study; assay type: in vivo; conditions: DAR 8 on Trastuzumab backbone, 20 or 60 mg/kg; for tolerability: IV once every 3 weeks, two doses
[6] = Control incubation in buffer without S9; assay type: in vitro ADME
Method: The control incubations include each ADC without the addition of S9.

Papain = Papain (a Cathepsin B surrogate); conditions: up to 96 hours

Adcetris
ADC cyno t112 [1]: 45 to 72 h

C=CCOC(=O)N1c2cc(OCCCC(=O)Nc3cc(C(=O)Nc4ccc(NC(=O)C(F)(F)F)cc4)n(C)c3)c(OC)cc2C(=O)N2CCCC[C@H]2C1OC1CCCCO1 (stereo partly drawn) [Formula 17, Allyl (6aS)-2-methoxy-3-(4-((1-methyl-5-((4-(2,2,2-trifluoroacetamido)phenyl)carbamoyl)-1H-pyrrol-3-yl)amino)-4-oxobutoxy)-12-oxo-6-((tetrahydro-2H-pyran-2-yl)oxy)-6,6a,7,8,9,10-hexahydrobenzo[e]pyrido[1,2-a][1,4]diazepine-5(12H)-carboxylate]
DNA-binding site sequence (HexA DNA fragment): XGXWWWW

Trastuzumab-Mal-GGFG-Dxd
fragment found [2]: DXd, minor, 0 min; also recorded: exatecan, minor | fragment found ([3]; Cynomolgus monkey): DXd, minor, 0 min; also recorded: Cys-Mc-GGFG-DXd; also recorded: exatecan, minor | fragment found ([3]; Human): DXd, 0 min; also recorded: Cys-Mc-GGFG-DXd; also recorded: exatecan, minor

COc1cc2c(cc1OCCCC(=O)Nc1cc(C(=O)Nc3ccc(N)cc3)n(C)c1)N=C[C@@H]1CCCCN1C2=O [Formula 19, (S)—N-(4-Aminophenyl)-4-(4-((2-methoxy-12-oxo-6a,7,8,9,10,12-hexahydrobenzo[e]pyrido[1,2-a][1,4]diazepin-3-yl)oxy)butanamido)-1-methyl-1H-pyrrol-2-carboxamide]
DNA interstrand cross-linking [4]: incapable of cross-linking DNA

COc1cc2c(cc1OCCCC(=O)Nc1cc(C(=O)Nc3ccc(-c4cc(C(=O)Nc5ccc(N)cc5)n(C)c4)cc3)n(C)c1)N=C[C@@H]1CCCCN1C2=O [Formula 26, (S)—N-(4-aminophenyl)-4-(4-(4-(4-((2-methoxy-12-oxo-6a,7,8,9,10,12-hexahydrobenzo[e]pyrido[1,2-a][1,4]diazepin-3-yl)oxy)butanamido)-1-methyl-1H-pyrrol-2-carboxamido)phenyl)-1-methyl-1H-pyrrol-2-carboxamide]
preferred binding sites in HexA (HexA DNA fragment; DNase I footprinting): only five preferred sites | DNA-binding site sequence (HexA DNA fragment): XGXWWWW | DNA interstrand cross-linking [4]: Cross-links are not detectable at any concentration

CC[C@@]1(O)C(=O)OCc2c1cc1n(c2=O)Cc2c-1nc1cc(F)c(C)c3c1c2[C@@H](NC(=O)[C@H](C)NC(=O)[C@@H](NC(=O)CCOCCOCCOCCOCCOCCOCCOCCOCCNC(=O)CCN1C(=O)C=CC1=O)C(C)C)CC3 [Compound 30, 1-(3-(2,5-Dioxo-2,5-dihydro-1H-pyrrol-1-yl)propanamido)-N-((2S)-1-(((2S)-1-(((1S,9S)-9-ethyl-5-fluoro-9-hydroxy-4-methyl-10,13-dioxo-2,3,9,10,12,13,13a,14-octahydro-1H-benzo[de]pyrano[″,″:5,6]indeno[1,2-b]quinolin-1-yl)amino)-1-oxopropan-2-yl)amino)-3-methyl-1-oxobutan-2-yl)-3,6,9,12,15,18,21,24-octaoxaheptacosan-27-amide]
changes in hemopoietic system / red cell parameters [5]: negligible effects | tolerability [5]: well tolerated | LC/MS peak area of released payload (exatecan; 4NH2-exatecan; DXd; DM1) ([6]; Buffer without S9, 180 min): 26,179 | LC/MS peak area of released payload (exatecan; 4NH2-exatecan; DXd; DM1) ([6]; Buffer without S9, 360 min): 51,267 | LC/MS peak area of released payload (exatecan; 4NH2-exatecan; DXd; DM1) ([6]; Buffer without S9, 1440 min): 59,452

1-(3-(2,5-Dioxo-2,5-dihydro-1H-pyrrol-1-yl)propanamido)-N-((2S)-1-(((2S)-1-(((1S,9S)-9-ethyl-5-fluoro-9-hydroxy-4-methyl-10,13-dioxo-2,3,9,10,12,13,13a,14-octahydro-1H-benzo[de]pyrano[″,″:5,6]indeno[1,2-b]quinolin-1-yl)amino)-1-oxopropan-2-yl)amino)-3-methyl-1-oxobutan-2-yl)-3,6,9,12,15,18,21,24-octaoxaheptacosan-27-amide
fragment found (Papain): Val-Ala-Exatecan | not cleaved (Papain): the free payload was not liberated

CC[C@@]1(O)C(=O)OCc2c1cc1n(c2=O)Cc2c-1nc1cc(F)c(C)c3c1c2[C@@H](NC(=O)CO)CC3 [Dxd, reference compound]
tolerability [5]: well tolerated

Reference: US20260027226A1 (Pheon Therapeutics Ltd, priority 2022, published 2026)
